Key:
Assay type in all cases: cell-based, rat
[1] = system: myoblasts isolated from the WT EOMs; experiment: Myogenic differentiation (MF20 staining, fusion index) of EOM myoblasts; settings: 10 μM, 7 days, vs DMSO
Method: For this, the cells were fixed with 4% PFA for 10 minutes at 4° C. and permeabilized with 0.5% Triton in 1×PBS for 6 minutes. After blocking with 10% BSA for 30 minutes at room temperature, the cells were incubated O/N at 4° C. with the following primary antibodies: Pax7 (Santa Cruz Biotechnology, sc-81648), MyoD (Dako, clone 5.8A, M3512), ki67 (Abcam, sp6 ab16667), sarcomeric myosin heavy chain (MF20, DSHB, AB_2147781).
The cell suspension was passed through cell filters and centrifuged at 600 g/minute for 5 minutes, at 4° C. The supernatant was removed and the cell pellet was resuspended in 20% fetal bovine serum (Cat #S1810-500 Dominique Dutscher) in DMEM (Cat #41966-029 Gibco) supplemented by 25 ng/mL of bFGF (RP4037, Sigma-Aldrich) with […] of penicillin/streptomycin (354234, Life Sciences) covered with matrigel (Sarstedt, #94.6140.802). The cells were grown for 48 hours to evaluate the proliferation. After 48 h of proliferation, the cells were cultured for 5 days in 5% fetal bovine serum to induce differentiation.
(§1) For this, the myoblasts derived from MSC were treated with 10 μM of ML224 (HY12381-S, CliniSciences) for 2 days (proliferation) or 7 days (differentiation) or 20 μM of forskolin (F3917, Sigma-Aldrich) (following experiment) only for 48 h. The control cells were treated with DMSO (D8418, Sigma Aldrich) as a vehicle for ML224 and forskolin.

[2] = system: Cdkn1a (p21) and Cdkn2a (p16) expression in EOM-derived myoblasts; experiment: qPCR of senescence markers in EOM-derived myoblasts; settings: EOM satellite cells in culture, 10 μM, vs DMSO
Method: The absence of Cdkn1a and Cdkn2a transcripts is also validated as well as the specific expression of TSHR on muscle satellite cells freshly isolated from EOMs by qRT-PCR (FIG. 6D): The RNA is extracted using the total RNA isolation kit RNAqueous-Micro (Invitrogen) and back-transcribed using SuperScript™ III reverse transcriptase (Invitrogen, 18080093) according to the manufacturer's instructions.
The qPCR is carried out using the StepOnePlus real-time PCR system (Applied Biosystems) and SYBR Green detection tools (Applied Biosystems).
The results are reported as relative gene expression (2-DDCT) using the vehicle-treated cells or the extra-ocular derived myoblasts as a reference. Gene expression is normalized on the expression levels of β-actin.
as §1

[3] = system: myoblasts isolated from the WT EOMs; experiment: EdU proliferation of EOM-derived myoblasts treated with TSHR antagonist; settings: 10 μM, 2 days, serum-free, EdU pulse 24 h, vs DMSO
Method: To evaluate the functional importance of the expression of TSHR in the MSCs of the EOMs, the myoblasts were isolated from the WT EOMs and treated with a selective antagonist of the TSH receptor, ML224 (Neumann et al., 2014).
as §1
The proliferation was measured after 24 h of culture by adding to the culture medium a pulse of […] of 5-ethynyl-20-deoxyuridine (EdU) for 24 h (EdU Click-iT PLUS Kit C10640, Life Technologies).
This experiment is carried out under serum-free conditions in order to prevent any stimulation of TSHR by the presence of TSH in the serum, which explains the lowest proliferative capacity of the myoblasts of the EOMs treated with the vehicle, relative to the data presented above (FIG. 3I).

With `COc1ccc(C2Nc3ccccc3C(=O)N2Cc2ccco2)cc1COc1c(C)cc(NC(C)=O)cc1C` (centres unmarked) [ML224] the “Differentiation / formation of myotubes” value [1] was “differentiation defects”, the “Fusion index compared to vehicle control” value [1] was “significant reduction” and the “Expression of Cdkn1a (p21)” value [2] was “induced the expression”. For the same molecule, the “Expression of Cdkn2a (p16)” value [2] was “induced the expression” and the “Proliferative myoblasts (Pax7+/MyoD+/EdU+ cells) relative to vehicle” value [3] was “significant decrease”.
